ChEMBL document CHEMBL2150989, “Effect of phospholipid-based formulations of Boswellia serrata extract on the solubility, permeability, and absorption of the individual boswellic acid constituents present” (J Nat Prod, 2012)
In brackets after ≈: the same amount, converted by molar mass. Each block holds one compound with its values, some of them ahead of it.

Key:
[1] = system: Plasma; assay: Plasma concentration in rat at 240 mg/kg, po administered using compound, Lipoid S100 and pluronic f127 ratio 1:1:1 formulation relative to non-formulated compound after 4 to 6 hrs; type: ADME, organism-based; parameters: dose 240 mg/kg, route oral; details: in vivo
[2] = Ratio drug level in brain to plasma of rat at 240 mg/kg, po after 8 hrs; type: ADME, organism-based; parameters: dose 240 mg/kg, route oral; details: brain and plasma, read-out: BPR
[3] = system: Brain; assay: Drug level in rat brain at 240 mg/kg, po administered using compound, Lipoid S100 and pluronic f127 ratio 1:1:1 formulation; type: ADME, organism-based; parameters: dose 240 mg/kg, route oral; details: in vivo
[4] = Ratio drug level in brain to plasma of rat at 240 mg/kg, po administered using compound, Lipoid S100 and pluronic f127 ratio 1:1:1 formulation after 8 hrs; type: ADME, organism-based; parameters: dose 240 mg/kg, route oral; details: read-out: BPR
[5] = system: Brain; assay: Drug level in rat brain at 240 mg/kg, po; type: ADME, organism-based; parameters: dose 240 mg/kg, route oral; details: in vivo
[6] = molecular target: T1, Prostaglandin E synthase (Homo sapiens, UniProt O14684); assay: Inhibition of mPGES1
T1 sequence (O14684 whole entry): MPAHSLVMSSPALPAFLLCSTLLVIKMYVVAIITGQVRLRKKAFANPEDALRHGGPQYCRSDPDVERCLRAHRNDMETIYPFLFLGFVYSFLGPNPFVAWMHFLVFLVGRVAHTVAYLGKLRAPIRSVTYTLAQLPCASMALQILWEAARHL

[7] = Solubility of the compound in fasted state simulated intestinal fluid at compound, Lipoid S100 and pluronic f127 ratio 1:1:1 after 3 hrs by HPLC analysis; type: physicochemical
[8] = Solubility of the compound in fasted state simulated intestinal fluid at compound to Lipoid S100 ratio 1:1 after 3 hrs by HPLC analysis; type: physicochemical
[9] = Solubility of the compound in fasted state simulated intestinal fluid at compound to Lipoid S100 ratio 1:1 after 3 hrs by HPLC analysis in presence of 3:1 molar ratio of Lipoid S100 to tween 80; type: physicochemical
[10] = Solubility of the compound in fed state simulated intestinal fluid at compound to Lipoid S100 ratio 1:1 after 3 hrs by HPLC analysis; type: physicochemical
[11] = Apparent permeability from apical to basolateral side of human Caco2 cells at compound, Lipoid S100 and pluronic f127 ratio 1:1:1 using modified fed state simulated intestinal fluid; type: ADME, cell-based; details: Caco-2
[12] = Permeability from apical to basolateral side of human Caco2 cells assessed as mass balance at compound, Lipoid S100 and pluronic f68 ratio 1:1:1; type: ADME, cell-based; details: Caco-2, read-out: permeability
[13] = Permeability from apical to basolateral side of human Caco2 cells assessed as mass balance at compound, Lipoid S100 and vitamin E-TPGS ratio 1:1:1; type: ADME, cell-based; details: Caco-2, read-out: permeability
[14] = Permeability from apical to basolateral side of human Caco2 cells assessed as mass balance at compound, Lipoid S100 and tween 80 ratio 1:1:1; type: ADME, cell-based; details: Caco-2, read-out: permeability
[15] = Solubility of the compound in fasted state simulated intestinal fluid at compound to Lipoid S100 ratio 1:1 after 3 hrs by HPLC analysis in presence of 10:1 molar ratio of Lipoid S100 to tween 80; type: physicochemical
[16] = Solubility of the compound in fed state simulated intestinal fluid at compound to Lipoid S100 ratio 1:3 after 3 hrs by HPLC analysis; type: physicochemical
[17] = Solubility of the compound in fasted state simulated intestinal fluid at 5 mg/mL after 3 hrs by HPLC analysis; type: physicochemical
[18] = Permeability from apical to basolateral side of human Caco2 cells assessed as mass balance at compound, Lipoid S100 and gelucire 44/14 ratio 1:1:1; type: ADME, cell-based; details: Caco-2, read-out: permeability
[19] = Permeability from apical to basolateral side of human Caco2 cells assessed as mass balance at 5 mg/mL; type: ADME, cell-based; details: Caco-2, read-out: permeability
[20] = Apparent permeability from apical to basolateral side of human Caco2 cells at compound, Lipoid S100 and pluronic f127 ratio 1:1:1 using HBSS buffer; type: ADME, cell-based; details: Caco-2
[21] = Solubility of the compound in fasted state simulated intestinal fluid at compound to Lipoid S100 ratio 1:3 after 3 hrs by HPLC analysis in presence of 3:1 molar ratio of Lipoid S100 to tween 80; type: physicochemical
[22] = Solubility of the compound in fasted state simulated intestinal fluid at compound to Lipoid S100 ratio 1:3 after 3 hrs by HPLC analysis in presence of 5:1 molar ratio of Lipoid S100 to tween 80; type: physicochemical
[23] = Permeability from apical to basolateral side of human Caco2 cells assessed as mass balance at compound to Lipoid S100 ratio 1:3 in presence of 5:1 molar ratio of Lipoid S100 to tween 80; type: ADME, cell-based; details: Caco-2, read-out: permeability
[24] = system: Caco-2; assay: Permeability from apical to basolateral side of human Caco2 cells at compound to Lipoid S100 ratio 1:3 in presence of 5:1 molar ratio of Lipoid S100 to tween 80; type: ADME, cell-based; details: BLD = below limit of detection
[25] = Solubility of the compound in fasted state simulated intestinal fluid at compound to Lipoid S100 ratio 1:1 after 3 hrs by HPLC analysis in presence of 5:1 molar ratio of Lipoid S100 to tween 80; type: physicochemical
[26] = Solubility of the compound in fasted state simulated intestinal fluid at compound to Lipoid S100 ratio 1:3 after 3 hrs by HPLC analysis; type: physicochemical
[27] = system: Plasma; assay: Plasma concentration in rat at 240 mg/kg, po administered using compound, Lipoid S100 and pluronic f127 ratio 1:1:1 formulation; type: ADME, organism-based; parameters: dose 240 mg/kg, route oral; details: in vivo
[28] = Permeability from apical to basolateral side of human Caco2 cells assessed as mass balance at compound to Lipoid S100 ratio 1:3; type: ADME, cell-based; details: Caco-2, read-out: permeability
[29] = system: Plasma; assay: Plasma concentration in rat at 240 mg/kg, po administered using compound, Lipoid S100 and pluronic f127 ratio 1:1:1 formulation relative to non-formulated compound after 2 hrs; type: ADME, organism-based; parameters: dose 240 mg/kg, route oral; details: in vivo
[30] = Apparent permeability from apical to basolateral side of human Caco2 cells at compound, Lipoid S100 and pluronic f127 ratio 1:1:1 using modified fasted state simulated intestinal fluid; type: ADME, cell-based; details: Caco-2
[31] = Solubility of the compound in water at compound to Lipoid S100 ratio 1:3 after 3 hrs by HPLC analysis; type: physicochemical
[32] = Solubility of the compound in fed state simulated intestinal fluid at 5 mg/mL after 3 hrs by HPLC analysis; type: physicochemical
[33] = Solubility of the compound in fasted state simulated intestinal fluid at compound to Lipoid S100 ratio 1:3 after 3 hrs by HPLC analysis in presence of 10:1 molar ratio of Lipoid S100 to tween 80; type: physicochemical
[34] = Solubility of the compound in water at pH 6.5; type: physicochemical
[35] = Solubility of the compound in water at compound to Lipoid S100 ratio 1:1 after 3 hrs by HPLC analysis; type: physicochemical
[36] = Solubility of the compound in water at 5 mg/mL after 3 hrs by HPLC analysis; type: physicochemical
[37] = Permeability from apical to basolateral side of human Caco2 cells assessed as mass balance at compound to Lipoid S100 ratio 1:1; type: ADME, cell-based; details: Caco-2, read-out: permeability
[38] = Permeability from apical to basolateral side of human Caco2 cells assessed as mass balance at compound, Lipoid S100 and vitamin E-TPGS ratio 1:2:1; type: ADME, cell-based; details: Caco-2, read-out: permeability
[39] = system: Plasma; assay: Plasma concentration in rat at 240 mg/kg, po administered using compound, Lipoid S100 and pluronic f127 ratio 1:1:1 formulation relative to non-formulated compound after 8 hrs; type: ADME, organism-based; parameters: dose 240 mg/kg, route oral; details: in vivo
[40] = Permeability from apical to basolateral side of human Caco2 cells assessed as mass balance at compound, Lipoid S100 and pluronic f127 ratio 1:1:1; type: ADME, cell-based; details: Caco-2, read-out: permeability

fold change (FC) [1]: 26
Kp at 8 h [2]: 0.2
Drug uptake [3]: 5908.2 ng/g
Kp at 8 h [4]: 5.5
Drug uptake [5]: 1066.6 ng/g
IC50 [6]: 5 µM
Compound: C[C@H]1[C@H](C)CC[C@]2(C)CC[C@]3(C)C(=CC[C@@H]4[C@@]5(C)CC[C@@H](O)[C@](C)(C(=O)O)[C@@H]5CC[C@]43C)[C@H]12 [BOSWELLIC ACID]

solubility at 3 h [7]: 65.3 µg/mL
solubility at 3 h [8]: 24.2 µg/mL
solubility at 3 h [9]: 27.6 µg/mL
solubility at 3 h [10]: 48 µg/mL
Papp A→B [11]: 2.8 ×10⁻⁶ cm/s
recovery [12]: 87.8%
recovery [13]: 98.8%
recovery [14]: 93.3%
solubility at 3 h [15]: 13.4 µg/mL
solubility at 3 h [16]: 35.8 µg/mL
Kp at 8 h [2]: 0.07
solubility at 3 h [17]: 3.05 µg/mL (≈ 5.95 µM)
recovery [18]: 90.7%
recovery at 5 mg/mL [19]: 95.2%
Papp A→B [20]: 2.5 ×10⁻⁶ cm/s
solubility at 3 h [21]: 69.5 µg/mL
solubility at 3 h [22]: 59.5 µg/mL
recovery [23]: 104%
permeability [24]: BLD
solubility at 3 h [25]: 18.2 µg/mL
solubility at 3 h [26]: 29.7 µg/mL
Drug uptake [3]: 203.8 ng/g
concentration [27]: 1700 nM
recovery [28]: 96.4%
fold change (FC) [29]: 14
Papp A→B [30]: 3.1 ×10⁻⁶ cm/s
solubility at 3 h [31]: 51.4 µg/mL
solubility at 3 h [32]: 13.2 µg/mL (≈ 25.8 µM)
Kp at 8 h [4]: 2.2
Drug uptake [5]: 37.5 ng/g
solubility at 3 h [33]: 44.7 µg/mL
solubility [34]: > 60 µg/mL
solubility at 3 h [35]: 0.87 µg/mL
solubility at 3 h [36]: 0.2 µg/mL (≈ 0.39 µM)
recovery [37]: 88.3%
recovery [38]: 98%
fold change (FC) [39]: 6
recovery [40]: 101%
Compound: CC(=O)O[C@@H]1CC[C@@]2(C)[C@@H](CC[C@]3(C)[C@@H]2C(=O)C=C2[C@@H]4[C@@H](C)[C@H](C)CC[C@]4(C)CC[C@]23C)[C@@]1(C)C(=O)O [AKBA]

fold change (FC) [1]: 26
Kp at 8 h [2]: 0.18
Drug uptake [3]: 2443.9 ng/g
Kp at 8 h [4]: 4.4
Drug uptake [5]: 485.1 ng/g
Compound: CC1(C)CC[C@]2(C)CC[C@]3(C)C(=CC[C@@H]4[C@@]5(C)CC[C@@H](O)[C@](C)(C(=O)O)[C@@H]5CC[C@]43C)[C@@H]2C1
